# Where two headings read alike, the source gives them in different places.
# Key:
# Format in all cases: biochemical
# PDE9A2 = molecular target: T1, PDE9A2 (Homo sapiens, UniProt O76083); assay: Phosphodiesterase enzyme screening assay, PDE9A2
# T1 construct: purchased Reaction Biology Corporation, Malvern, Pa
# Summary of the method: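 Reaction started by adding substrate (4.0 μM cGMP) to recombinant human enzyme in HEPES pH 7.5 buffer with MgCl2, DTT and Brij; 1 h at room temperature; quenched with EDTA-containing stop buffer; product and substrate resolved electrophoretically and quantified by fluorescence relative to uninhibited controls.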
# PDE1A = molecular target: T2, PDE1A (Homo sapiens, UniProt P54750); assay: Phosphodiesterase enzyme screening assay, PDE1A
# T2 construct: purchased Reaction Biology Corporation, Malvern, Pa
# Source text: (§1) Compounds of the invention were screened against PDE1A, PDE1B, PDE2A, PDE3A, PDE3B, PDE4A1A, PDE4B1, PDE4D3, PDE5A1, PDE6C, PDE7A, PDE8A1, PDE9A2, PDE10A2 AND PDE11A isoforms of the phosphodiesterase enzyme to determine activity and overall selectivity through comparative analysis. […] Where 8-methoxy-IBMX and Zaprinast were used as reference inhibitors.
# (§2) The phosphodiesterase enzyme isoforms were obtained from a commercial retailer (Reaction Biology Corporation, Malvern, Pa.) for use in the instant screening assay.
# (§3) The analysis was completed using the Caliper LabChip 3000 and a 12-sipper LabChip. LabChip assays are separations-based, meaning that the product and substrate are electrophoretically separated, thereby minimizing interferences and yielding the highest data quality available on any screening platform. […] High Z′ values, few false positives, few false negatives and analytical quality reproducibility are the reasons cited for the increasing reliance on the LabChip assays.
# (§4) The off-chip incubation mobility-shift phosphodiesterase assay uses a microfluidic chip to measure the conversion of a fluorescent cyclic AMP substrate to a 5′-AMP product, or a cyclic GMP substrate to a 5′-GMP product. The reaction mixture, from a microtiter plate well, is introduced through a capillary sipper onto the chip, where the fluorescent substrate and product are separated by electrophoresis and detected via laser-induced fluorescence. […] The precision of microfluidics allows researchers to detect subtle interactions between drug candidates and therapeutic targets.
# (§5) Reactions were carried out in 100 mM HEPES (pH 7.5), 5 mM MgCl2, 1 mM DTT, 0.003% Brij, 4.0 μM cGMP substrate. The reaction was started by addition of cGMP or cAMP and incubated for 1 hour at R.T. The reaction was terminated by the addition of stop buffer containing 100 mM HEPES (pH 7.5), 15 mM EDTA, 0.015% Brij-35, 5% DMSO. Cyclic AMP/GMP substrate and 5′-AMP/5′-GMP product were separated by charge using electrophoretic mobility shift. Product formed was compared to control wells to determine inhibition or enhancement of enzyme activity.
# (§6) Data points were averages of quadruplicate wells and error bars represented the SEM for each point.
# PDE1B = molecular target: T3, PDE1B (Homo sapiens, UniProt Q01064); assay: Phosphodiesterase enzyme screening assay, PDE1B
# T3 construct: purchased Reaction Biology Corporation, Malvern, Pa
# Source text: as §1, §2, §3, §4, §5, §6
# [1] = 4.0 μM cGMP substrate, 1 hour at R.T., read-out: Band (PDE9A2 IC50)
# [2] = ratio of IC50 values PDE1A / PDE9A2, value greater than 1 = greater selectivity for PDE9A2
# [3] = ratio of IC50 values PDE1B / PDE9A2, value greater than 1 = greater selectivity for PDE9A2
# [4] = Table 1, 10 concentrations, 4.0 μM cGMP substrate, 1 hour at R.T., read-out: Band (PDE9A2 IC50)
# [5] = Table 1, ratio of IC50 values, value greater than 1 indicates greater selectivity for PDE9A2
# [6] = ratio of IC50 values, PDE1A versus PDE9A2, value greater than 1 indicates greater selectivity for PDE9A2
# [7] = ratio of IC50 values, PDE1B versus PDE9A2, value greater than 1 indicates greater selectivity for PDE9A2
# T1 sequence (O76083 1-533 isoform O76083-2): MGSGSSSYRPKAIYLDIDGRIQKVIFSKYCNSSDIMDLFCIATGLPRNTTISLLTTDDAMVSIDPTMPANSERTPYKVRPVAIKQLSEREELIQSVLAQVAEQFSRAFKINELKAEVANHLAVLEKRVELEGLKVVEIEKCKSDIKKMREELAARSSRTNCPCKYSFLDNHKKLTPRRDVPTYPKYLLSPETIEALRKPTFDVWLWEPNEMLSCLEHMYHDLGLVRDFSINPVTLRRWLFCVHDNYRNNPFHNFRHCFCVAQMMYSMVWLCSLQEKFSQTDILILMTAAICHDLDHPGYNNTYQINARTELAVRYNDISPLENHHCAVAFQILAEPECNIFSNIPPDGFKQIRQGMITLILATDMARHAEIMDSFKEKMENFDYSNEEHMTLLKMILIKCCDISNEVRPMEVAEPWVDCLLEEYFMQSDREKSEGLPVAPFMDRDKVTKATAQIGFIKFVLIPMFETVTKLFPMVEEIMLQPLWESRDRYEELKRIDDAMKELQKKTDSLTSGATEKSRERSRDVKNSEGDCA
# T3 sequence (Q01064 whole entry): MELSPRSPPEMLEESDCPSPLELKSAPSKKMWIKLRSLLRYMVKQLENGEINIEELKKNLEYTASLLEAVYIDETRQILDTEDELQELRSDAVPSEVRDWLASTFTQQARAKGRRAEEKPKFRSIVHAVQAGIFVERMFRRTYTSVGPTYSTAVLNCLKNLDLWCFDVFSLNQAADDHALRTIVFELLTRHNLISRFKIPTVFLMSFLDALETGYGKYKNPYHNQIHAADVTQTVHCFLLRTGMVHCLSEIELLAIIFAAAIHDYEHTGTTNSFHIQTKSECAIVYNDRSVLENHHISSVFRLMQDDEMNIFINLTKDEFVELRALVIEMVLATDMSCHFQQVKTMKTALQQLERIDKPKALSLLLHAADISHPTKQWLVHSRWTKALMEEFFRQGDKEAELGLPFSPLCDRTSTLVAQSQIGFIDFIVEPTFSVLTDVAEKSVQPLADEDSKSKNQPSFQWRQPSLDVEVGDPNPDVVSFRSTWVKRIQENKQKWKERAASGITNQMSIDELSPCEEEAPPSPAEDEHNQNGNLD
# T2 sequence (P54750 whole entry): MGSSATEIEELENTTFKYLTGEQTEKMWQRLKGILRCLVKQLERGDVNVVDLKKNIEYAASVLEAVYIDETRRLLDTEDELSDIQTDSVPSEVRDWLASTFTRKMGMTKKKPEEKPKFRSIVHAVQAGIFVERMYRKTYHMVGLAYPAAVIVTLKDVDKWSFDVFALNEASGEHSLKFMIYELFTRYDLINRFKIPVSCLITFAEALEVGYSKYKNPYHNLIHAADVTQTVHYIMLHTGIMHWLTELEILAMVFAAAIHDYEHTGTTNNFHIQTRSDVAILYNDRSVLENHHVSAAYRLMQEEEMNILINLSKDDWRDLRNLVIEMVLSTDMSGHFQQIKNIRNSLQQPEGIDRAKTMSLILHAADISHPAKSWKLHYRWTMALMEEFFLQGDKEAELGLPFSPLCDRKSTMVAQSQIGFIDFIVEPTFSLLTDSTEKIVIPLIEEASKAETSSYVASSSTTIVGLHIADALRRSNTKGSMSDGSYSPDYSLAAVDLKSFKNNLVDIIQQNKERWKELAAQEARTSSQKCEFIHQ
Compound,IC50 (PDE9A2; [4]) [µM],PDE1A selectivity (versus PDE9A2) (PDE1A; [5]),PDE1B selectivity (versus PDE9A2) (PDE1B; [5]),further results
"CC1CN(Cc2ccc(Cl)cn2)CC1c1nn2c(C3CCOCC3)ncc2c(=O)[nH]1 (single isomer, unassigned; (+)) [(+)-2-((3,4-trans)-1-((5-chloropyridin-2-yl)methyl)-4-methylpyrrolidin-3-yl)-7-(tetrahydro-2H-pyran-4-yl)imidazo[5,1-f][1,2,4]triazin-4(3H)-one]",,,,IC50 (PDE9A2; [1]): < 1 µM; PDE1A selectivity (versus PDE9A2) (PDE1A; [2]): 107; PDE1B selectivity (versus PDE9A2) (PDE1B; [3]): 184
"CC1CN(Cc2cccc(C(F)(F)F)c2)CC1c1nn2c(C3CCOCC3)ncc2c(=O)[nH]1 (single isomer, unassigned; (+)) [(+)-2-((3,4-trans)-4-methyl-1-(3-(trifluoromethyl)benzyl)pyrrolidin-3-yl)-7-(tetrahydro-2H-pyran-4-yl)imidazo[5,1-f][1,2,4]triazin-4(3H)-one]",< 1,203,86,
"CC1CN(Cc2ccc(Cl)c(F)c2)CC1c1nn2c(C3CCOCC3)ncc2c(=O)[nH]1 (single isomer, unassigned; (+)) [(+)-2-((3,4-trans)-1-(4-chloro-3-fluorobenzyl)-4-methylpyrrolidin-3-yl)-7-(tetrahydro-2H-pyran-4-yl)imidazo[5,1-f][1,2,4]triazin-4(3H)-one]",< 1,3575,6575,
"COc1cccc(CN2CC(C)C(c3nn4c(C5CCOCC5)ncc4c(=O)[nH]3)C2)n1 (single isomer, unassigned; (+)) [(+)-2-((3,4-trans)-1-((6-methoxypyridin-2-yl)methyl)-4-methylpyrrolidin-3-yl)-7-(tetrahydro-2H-pyran-4-yl)imidazo[5,1-f][1,2,4]triazin-4(3H)-one]",< 1,579,571,
"CC1CN(Cc2cn3ccccc3n2)CC1c1nn2c(C3CCCC3)ncc2c(=O)[nH]1 (single isomer, unassigned; (+)) [(+)-7-cyclopentyl-2-((3,4-trans)-1-(imidazo[1,2-a]pyridin-2-ylmethyl)-4-methylpyrrolidin-3-yl)imidazo[5,1-f][1,2,4]triazin-4(3H)-one]",,,,IC50 (PDE9A2; read-out: Band (PDE9A2 IC50)): < 1 µM; PDE1A selectivity (versus PDE9A2) (PDE1A; [6]): 57; PDE1B selectivity (versus PDE9A2) (PDE1B; [7]): 125
"Cc1ccccc1-c1ncc2c(=O)[nH]c(C3CN(Cc4cn5ccccc5n4)CC3C)nn12 (single isomer, unassigned; (+)) [(+)-2-((3,4-trans)-1-(imidazo[1,2-a]pyridin-2-ylmethyl)-4-methylpyrrolidin-3-yl)-7-(o-tolyl)imidazo[5,1-f][1,2,4]triazin-4(3H)-one]",,,,IC50 (PDE9A2; read-out: Band (PDE9A2 IC50)): < 1 µM; PDE1A selectivity (versus PDE9A2) (PDE1A; [6]): 326; PDE1B selectivity (versus PDE9A2) (PDE1B; [7]): 661
"CC1CN(Cc2ccc(F)c(Cl)c2)CC1c1nn2c(C3CCOCC3)ncc2c(=O)[nH]1 (single isomer, unassigned; (+)) [(+)-2-((3,4-trans)-1-(3-chloro-4-fluorobenzyl)-4-methylpyrrolidin-3-yl)-7-(tetrahydro-2H-pyran-4-yl)imidazo[5,1-f][1,2,4]triazin-4(3H)-one]",,,,IC50 (PDE9A2; [1]): < 1 µM; PDE1A selectivity (versus PDE9A2) (PDE1A; [2]): 604; PDE1B selectivity (versus PDE9A2) (PDE1B; [3]): 430
"CC1CN(Cc2ccc(F)cc2)CC1c1nn2c(C3CCOCC3)ncc2c(=O)[nH]1 (single isomer, unassigned; (+)) [(+)-2-((3,4-trans)-1-(4-fluorobenzyl)-4-methylpyrrolidin-3-yl)-7-(tetrahydro-2H-pyran-4-yl)imidazo[5,1-f][1,2,4]triazin-4(3H)-one]",< 1,664,714,
"CC1CN(c2ncccn2)CC1c1nn2c(C3CCOCC3)ncc2c(=O)[nH]1 (single isomer, unassigned; (+)) [(+)-2-((3,4-trans)-4-methyl-1-(pyrimidin-2-yl)pyrrolidin-3-yl)-7-(tetrahydro-2H-pyran-4-yl)imidazo[5,1-f][1,2,4]triazin-4(3H)-one]",< 1,1,1,
"CC1CN(Cc2nc3ccccn3n2)CC1c1nn2c(C3CCC(F)(F)CC3)ncc2c(=O)[nH]1 (single isomer, unassigned; (+)) [(+)-2-((3,4-trans)-1-([1,2,4]triazolo[1,5-a]pyridin-2-ylmethyl)-4-methylpyrrolidin-3-yl)-7-(4,4-difluorocyclohexyl)imidazo[5,1-f][1,2,4]triazin-4(3H)-one]",< 1,597,1847,
"Cc1cc(F)ccc1-c1ncc2c(=O)[nH]c(C3CN(Cc4ccccn4)CC3C)nn12 (single isomer, unassigned; (+)) [(+)-7-(4-fluoro-2-methylphenyl)-2-((3,4-trans)-4-methyl-1-(pyridin-2-ylmethyl)pyrrolidin-3-yl)imidazo[5,1-f][1,2,4]triazin-4(3H)-one]",,,,"IC50 (PDE9A2; IC50 band, 4.0 μM cGMP substrate, 1 hour at R.T.): < 1 µM; PDE1A selectivity (versus PDE9A2) (PDE1A; ratio of IC50 values PDE1A vs PDE9A2, value greater than 1 indicates greater selectivity for PDE9A2): 5780; PDE1B selectivity (versus PDE9A2) (PDE1B; ratio of IC50 values PDE1B vs PDE9A2, value greater than 1 indicates greater selectivity for PDE9A2): 374"
"Cc1cccnc1CN1CC(C)C(c2nn3c(C4CCOCC4)ncc3c(=O)[nH]2)C1 (single isomer, unassigned; (+)) [(+)-2-((3,4-trans)-4-methyl-1-((3-methylpyridin-2-yl)methyl)pyrrolidin-3-yl)-7-(tetrahydro-2H-pyran-4-yl)imidazo[5,1-f][1,2,4]triazin-4(3H)-one]",,,,"IC50 (PDE9A2; Table 3, 4.0 μM cGMP substrate, 1 hour at R.T., read-out: Band (PDE9A2 IC50)): < 1 µM; PDE1A selectivity (versus PDE9A2) (PDE1A; ratio of IC50 values, PDE1A versus PDE9A2, value greater than 1 = greater selectivity for PDE9A2): 242; PDE1B selectivity (versus PDE9A2) (PDE1B; ratio of IC50 values, PDE1B versus PDE9A2, value greater than 1 = greater selectivity for PDE9A2): 298"

# Continued, in another order:
IC50 (PDE9A2; [4]) [µM],PDE1A selectivity (versus PDE9A2) (PDE1A; [5]),PDE1B selectivity (versus PDE9A2) (PDE1B; [5]),Compound,further results
< 1,188,591,"CC1CN(Cc2cn3cccnc3n2)CC1c1nn2c(C3CCOCC3)ncc2c(=O)[nH]1 (single isomer, unassigned; (-)) [(−)-2-((3,4-trans)-1-(imidazo[1,2-a]pyrimidin-2-ylmethyl)-4-methylpyrrolidin-3-yl)-7-(tetrahydro-2H-pyran-4-yl)imidazo[5,1-f][1,2,4]triazin-4(3H)-one]",
< 1,71,99,"CC1CN(Cc2ccnnc2)CC1c1nn2c(C3CCOCC3)ncc2c(=O)[nH]1 (single isomer, unassigned; (+)) [(+)-2-((3,4-trans)-4-methyl-1-(pyridazin-4-ylmethyl)pyrrolidin-3-yl)-7-(tetrahydro-2H-pyran-4-yl)imidazo[5,1-f][1,2,4]triazin-4(3H)-one]",
< 1,32,50,"CC1CN(C(=O)c2ncc3ccccc3n2)CC1c1nn2c(C3CCOCC3)ncc2c(=O)[nH]1 (single isomer, unassigned; (-)) [(−)-2-((3,4-trans)-4-methyl-1-(quinazoline-2-carbonyl)pyrrolidin-3-yl)-7-(tetrahydro-2H-pyran-4-yl)imidazo[5,1-f][1,2,4]triazin-4(3H)-one]",
< 1,309,496,"CC1CN(Cc2ccccc2)CC1c1nn2c(C3CCC(F)(F)CC3)ncc2c(=O)[nH]1 (single isomer, unassigned; (+)) [(+)-2-((3,4-trans)-1-benzyl-4-methylpyrrolidin-3-yl)-7-(4,4-difluorocyclohexyl)imidazo[5,1-f][1,2,4]triazin-4(3H)-one]",

# — patent US9969742B2, “Imidazotriazinone compounds” (Ironwood Pharmaceuticals, Inc., priority 2012, dated 2018)
